# Assay results: article PMC6114901, “An automated screening method for detecting compounds with goitrogenic activity using transgenic zebrafish embryos” (PLoS ONE, 2018)
# Assays:
# [1] = in vivo; details: zebrafish, in vivo
# [2] = system: zebrafish embryos; experiment: in vivo; details: for LC10: S2 Fig, unit not given, in µM; for Slope: mortality concentration-response curve
# [3] = ref chemspider (http://www.chemspider.com); cited from earlier work
# [4] = 72 hpf, 77.18 µmol/L, replicate 2, 11 embryos
# [5] = 72 hpf, 115.76 µmol/L, replicate 2, 9 embryos
# [6] = 72 hpf, 173.64 µmol/L, replicate 2, 8 embryos
# [7] = 72 hpf, 260.47 µmol/L, replicate 2, 10 embryos
# [8] = 72 hpf, 390.70 µmol/L, replicate 2, 10 embryos
# [9] = 120 hpf, 25 µmol/L, replicate 1, 25 embryos
# [10] = 120 hpf, 50 µmol/L, replicate 1, 25 embryos
# [11] = 120 hpf, 77.18 µmol/L, replicate 2, 11 embryos
# [12] = 120 hpf, 100 µmol/L, replicate 1, 25 embryos
# [13] = 120 hpf, 115.76 µmol/L, replicate 2, 9 embryos
# [14] = 120 hpf, 173.64 µmol/L, replicate 2, 9 embryos
# [15] = 120 hpf, 200 µmol/L, replicate 1, 25 embryos
# [16] = 120 hpf, 260.47 µmol/L, replicate 2, 10 embryos
# [17] = 120 hpf, 390.70 µmol/L, replicate 2, 10 embryos
# [18] = 120 hpf, 400 µmol/L, replicate 1, 25 embryos
# [19] = sheet DCA 96 hpf (head prints 72 hpf), 77.18 µmol/L, replicate 2, 10 embryos
# [20] = sheet DCA 96 hpf (head prints 72 hpf), 115.76 µmol/L, replicate 2, 9 embryos
# [21] = sheet DCA 96 hpf (head prints 72 hpf), 173.64 µmol/L, replicate 2, 8 embryos
# [22] = sheet DCA 96 hpf (head prints 72 hpf), 260.47 µmol/L, replicate 2, 10 embryos
# [23] = sheet DCA 96 hpf (head prints 72 hpf), 390.70 µmol/L, replicate 2, 10 embryos
smiles,measurement,setting,value
"Nc1ccc(Cl)c(Cl)c1 [3,4-DCA, 3,4-dichloroaniline]",LC50,"[1]; LC50 (48–120 hpf), mortality, embryos exposed 48–120 hpf",29.4 µM
same,LC50,"[1]; LC50, mortality after 48 h of exposure, S2 Fig, unit inferred",319 µM
same,LC50,"[1]; LC50, mortality after 72 h of exposure, S2 Fig, unit inferred",59.4 µM
same,No Surviving,[2]; [4],11
same,No hatched,[2]; [4],9
same,Sublethal effects Total Sublethal,[2]; [4],9
same,Sublethal effects tip,[2]; [4],9
same,No Surviving,[2]; [5],9
same,No hatched,[2]; [5],7
same,Sublethal effects Total Sublethal,[2]; [5],7
same,Sublethal effects mch,[2]; [5],4
same,Sublethal effects tip,[2]; [5],7
same,No Surviving,[2]; [6],8
same,No hatched,[2]; [6],7
same,Sublethal effects Total Sublethal,[2]; [6],7
same,Sublethal effects mch,[2]; [6],4
same,Sublethal effects tip,[2]; [6],7
same,No Surviving,[2]; [7],10
same,No hatched,[2]; [7],4
same,Sublethal effects EdY / EdP,[2]; [7],1
same,Sublethal effects Total Sublethal,[2]; [7],4
same,Sublethal effects mch,[2]; [7],2
same,Sublethal effects tip,[2]; [7],4
same,No Surviving,[2]; [8],10
same,No hatched,[2]; [8],3
same,Sublethal effects EdY / EdP,[2]; [8],10
same,Sublethal effects Total Sublethal,[2]; [8],10
same,Sublethal effects mch,[2]; [8],3
same,Sublethal effects tip,[2]; [8],3
same,Lethal effects k/f,[2]; [9],3
same,No Surviving,[2]; [9],22
same,Lethal effects k/f,[2]; [10],21
same,No Surviving,[2]; [10],4
same,No Surviving,[2]; [11],11
same,No hatched,[2]; [11],8
same,Sublethal effects EdY / EdP,[2]; [11],8
same,Sublethal effects Total Sublethal,[2]; [11],8
same,Sublethal effects mch,[2]; [11],4
same,Sublethal effects nobc,[2]; [11],8
same,Sublethal effects nomov,[2]; [11],8
same,Sublethal effects tip,[2]; [11],8
same,Lethal effects k/f,[2]; [12],25
same,No Surviving,[2]; [12],0
same,Lethal effects k/f,[2]; [13],6
same,No Surviving,[2]; [13],3
same,No hatched,[2]; [13],8
same,Sublethal effects EdY / EdP,[2]; [13],2
same,Sublethal effects mch,[2]; [13],1
same,Sublethal effects nobc,[2]; [13],2
same,Sublethal effects nomov,[2]; [13],2
same,Sublethal effects tip,[2]; [13],2
same,Lethal effects k/f,[2]; [14],3
same,Lethal effects nohb,[2]; [14],3
same,No Surviving,[2]; [14],3
same,No hatched,[2]; [14],9
same,Sublethal effects EdY / EdP,[2]; [14],3
same,Sublethal effects Ydef,[2]; [14],1
same,Sublethal effects mch,[2]; [14],1
same,Sublethal effects nobc,[2]; [14],3
same,Sublethal effects nomov,[2]; [14],3
same,Sublethal effects tip,[2]; [14],3
same,Lethal effects k/f,[2]; [15],25
same,No Surviving,[2]; [15],0
same,Lethal effects k/f,[2]; [16],5
same,Lethal effects nohb,[2]; [16],5
same,No Surviving,[2]; [16],0
same,No hatched,[2]; [16],4
same,Lethal effects k/f,[2]; [17],8
same,Lethal effects nohb,[2]; [17],2
same,No Surviving,[2]; [17],0
same,No hatched,[2]; [17],4
same,Lethal effects k/f,[2]; [18],25
same,No Surviving,[2]; [18],0
same,LC10,[2]; mortality after 48 h of exposure,306
same,LC10,[2]; mortality after 72 h of exposure,14.1
same,Slope,[2]; 48 h of exposure,55.5
same,Slope,[2]; 72 h of exposure,1.53
same,No Surviving,[2]; [19],10
same,No hatched,[2]; [19],8
same,Sublethal effects EdY / EdP,[2]; [19],6
same,Sublethal effects Total Sublethal,[2]; [19],8
same,Sublethal effects mch,[2]; [19],2
same,Sublethal effects tip,[2]; [19],8
same,No Surviving,[2]; [20],9
same,No hatched,[2]; [20],8
same,Sublethal effects Total Sublethal,[2]; [20],8
same,Sublethal effects mch,[2]; [20],5
same,Sublethal effects nomov,[2]; [20],5
same,Sublethal effects tip,[2]; [20],8
same,No Surviving,[2]; [21],8
same,Sublethal effects Total Sublethal,[2]; [21],9
same,Sublethal effects Ydef,[2]; [21],1
same,Sublethal effects mch,[2]; [21],6
same,Sublethal effects nobc,[2]; [21],9
same,Sublethal effects nomov,[2]; [21],9
same,Sublethal effects tip,[2]; [21],9
same,No Surviving,[2]; [22],10
same,No hatched,[2]; [22],4
same,Sublethal effects EdY / EdP,[2]; [22],4
same,Sublethal effects Total Sublethal,[2]; [22],4
same,Sublethal effects mch,[2]; [22],2
same,Sublethal effects nobc,[2]; [22],4
same,Sublethal effects nomov,[2]; [22],4
same,Sublethal effects tip,[2]; [22],4
same,Lethal effects k/f,[2]; [23],1
same,Lethal effects nohb,[2]; [23],9
same,No Surviving,[2]; [23],0
same,No hatched,[2]; [23],4
same,Log D (pH 7.4),[3],2.6
